Assay results: PMC8536682, “NPF activates a specific NPF receptor and regulates food intake in Pacific abalone Haliotis discus hannai” (Scientific Reports, 2021)
pEC50: −log10 of the molar value. No end group written: not given here.

What was measured:
[1] = system: pcDNA3-transfected HEK293 cells; experiment: CRE-Luc luciferase reporter assay in pcDNA3-transfected HEK293 cells; type: cell-based, human; conditions: pcDNA3-transfected HEK293 cells (no receptor); Fig. 3d
Description: HEK293 cells were cultured in Dulbecco’s modified Eagle medium (DMEM; Gibco, Loughborough, UK) containing 1% penicillin/streptomycin (P/S; Invitrogen) and 10% fetal bovine serum (FBS; Hyclone, GE Healthcare, Chicago, IL, USA). Sixteen hours before transfection, cultured HEK293 cells were seeded into 24-well plates (5 × 10^4 cells/well). The cells were transfected with a luciferase reporter plasmid of CRE-Luc[68] or SRE-Luc[69] using a polyethyleneimine transfection reagent (Sigma-Aldrich, St. Louis, MO, USA), along with pcDNA3-HA plasmids containing Hdh-NPFR-related receptors, human NPYR1 and NPYR2 (kindly provided by Dr. Annette G. Beck-Sickinger, Leipzig University, Germany), and a pRSV-β-galactosidase expression plasmid as an internal control (100 ng of each plasmid/well) as previously reported. After 3 h of transfection, the culture medium was replaced by new DMEM with 1% P/S and 10% FBS, and the HEK293 cells were further cultured for 30 h and then maintained in DMEM without FBS for 16 h. […] The cells were lysed with a luciferase cell culture lysis buffer (Promega, Madison, WI, USA) and luciferase activities were analyzed using a microplate-luminometer (Berthold Tech., Bad Wildbad, Germany) and normalized by the β-galactosidase values detected by an absorbance microplate reader (Tecan, Mannedorf, Switzerland) at 405 nm.

Hdh-NPFR [2] = experiment: Western blot of ERK1/2 phosphorylation in Hdh-NPFR-expressing HEK293 cells; type: cell-based, Haliotis discus hannai; conditions: inhibitor 10^–5 M pre-incubated 1 h, then Hdh-NPF (10^–8, 10^–6 M) 5 min; Fig. 3f
Description: HEK293 cells were seeded into 6-well plates (0.3 × 10^6 cells/well) and transfected with 3 μg of pcDNA3-HA-Hdh-NPFR or pcDNA3 as described for the reporter assays. At 36 h post-transfection, the transfected cells were treated with Hdh-NPF (10^–9–10^–7 M), TPA (10^–7 M), or the same volume of peptide-free medium as a vehicle for 10 min. After washing twice with PBS, the cells were lysed with RIPA buffer [150 mM NaCl, 1% Triton X-100, 0.5% sodium deoxycholate, 0.1% sodium dodecyl sulfate (SDS), 50 mM Tris–Cl, pH 8.0] including protease inhibitor cocktail and PhosSTOP (Roche, Basel, Switzerland) according to the manufacturer’s recommendation. To examine signaling pathways, Hdh-NPFR-transfected cells were pre-incubated with serum-free DMEM for 6 h at 37 °C and exposed to a PKA inhibitor (H89, 10^–5 M; Sigma-Aldrich) or PKC inhibitor (Gӧ6983, 10^–5 M; Sigma-Aldrich) for a further 60 min. After replacing the medium with fresh serum-free DMEM, the cells were exposed to Hdh-NPF peptide (10^–8, 10^–6 M) for 5 min at 37 °C. The cell lysates were separated by 10% SDS–polyacrylamide gel electrophoresis and subsequently transferred to nitrocellulose membranes (Pall, Ann Arbor, MI, USA). […] The reactive bands were monitored using C-Digit 3600 Bolt Scanner (LI-COR, Lincoln, NE, USA).

Hdh-NPFR [3] = experiment: Ca2+ mobilization (aequorin luminescence) assay in Hdh-NPFR-transfected CHO-K1 cells; type: cell-based, Haliotis discus hannai; conditions: Fig. 3g, Fig. S7b
Description: CHO-K1 cells were maintained in DMEM-F12 Nutrient Mixture Ham supplemented with 10% FBS (Welgene) at 37 °C in 5% CO2. Cells grown in a monolayer to 60% confluency in 100 mm dishes (1.5 × 10^6 cells) were transiently transfected with plasmids using FuGENE6 transfection reagent (Promega), according to the manufacturer’s recommendations. In brief, the transfection medium was prepared by combining 600 μl of DMEM-F12 with 2 μg of pcDNA3-HA-Hdh-NPFR plasmid together with 2 μg of a Ca^2+ reporter aequorin plasmid with or without the promiscuous Gα15 expression plasmid (kind gifts from Dr. Young-Joon Kim, Gwangju Institute of Science and Technology, Gwangju, Korea) with 18 μl of FuGENE6 in a 5 ml polystyrene tube and incubated for 25 min at room temperature. The transfection mixture was added to CHO-K1 cells in 10 ml of fresh FBS-free medium and the cells were incubated at 37 °C in 5% CO2 overnight. On the day of the assay, the cells were detached from the culture dish by incubating with 3 ml of 5 mM EDTA in phosphate-buffered saline (PBS, pH 7.2; Thermo Fisher Scientific, Waltham, MA, USA) for 5 min. The cells were washed in 10 ml of phenol red-free DMEM/F-12 with 0.1% bovine serum albumin (BSA) and 1% P/S (DMEM-prf), and collected by brief centrifugation. Probenecid (1.25 mM final concentration, Invitrogen) and coelenterazine (5 μM, Gold Biotech., St. Louis, MO, USA) were added to resuspended CHO-K1 cells in 5 ml of DMEM-prf medium and the cells were gently agitated for 2.5 h using a magnetic stirrer at room temperature shielded from light. The cell suspension was diluted four times with DMEM-prf and incubated for a further 30 min. Just before the Ca^2+ mobilization assay, peptide solutions were prepared in DMEM-prf and 50 μl aliquots were dispensed into 3 or 4 wells/peptide on 96-well microplates. DMEM-prf was used as a negative control. While stirring gently, 50 μl of the cell suspension was injected into a luminescence microplate reader (Berthold Tech.) using an automated injector unit. Luminescence was recorded for 20 s and for a further 10 s after injection of DMEM-prf including 0.2% Triton X-100 to measure the total Ca^2+ response. The average luminescence from multiple replicate wells for a single concentration was calculated and normalized to the largest receptor response after subtraction of background values obtained from negative controls. Dose–response curves and EC50 values were obtained using Sigma Plot v.13 (Systat Software, Inc., San Jose, CA, USA).

For “QDAMLAPPDRPSEFRSPDQLRQYLKALNEYYAIVGRPRF-NH2 [Hdh-NPF]”, the pEC50 [1] was 6.22.

In the case of `COc1ccc2c(c1)c(C1=C(c3c[nH]c4ccccc34)C(=O)NC1=O)cn2CCCN(C)C` [Gӧ6983], the “Effect of inhibitor on Hdh-NPFR-mediated activation of ERK1/2” value (Hdh-NPFR [2]) was “abolished”.

In the case of “QDAMLAPPDRPSEFRSPD-NH2 [Hdh-NPF-N18, truncated Hdh-NPF peptide]”, the “Ca2+ mobilization response” value (Hdh-NPFR [3]) was “could not induce”.

For “YAIVGRPRF-NH2 [Hdh-NPF-C9, truncated Hdh-NPF peptide]”, the “Ca2+ mobilization response” value (Hdh-NPFR [3]) was “could not induce”.

With “YPSKPDNPGEDAPAEQLRQYLKALNEYYAIVGRPRF-NH2 [NPY-F, chimeric mixed peptide for Hdh-NPF and human NPY]” the “Ca2+ mobilization response” value (Hdh-NPFR [3]) was “could not activate”.

“QLRQYLKALNEYYAIVGRPRF-NH2 [Hdh-NPF-C21, truncated Hdh-NPF peptide]” was tested, and the “Ca2+ mobilization response” value (Hdh-NPFR [3]) was “could not induce”.
